Data as given in patent US9096624B2 (OSI Pharmaceuticals, LLC, priority 2009, dated 2015).

Legend:
FAK [1] = biological target: T1, FAK (Homo sapiens, UniProt Q05397); test: Biochemical HTRF (FRET) assay of FAK kinase activity; details: 100 uM ATP; biotinylated PGT substrate; read-out: Mean FAK Biochem FRET IC50 (100 uM ATP)
Protocol: Biochemical HTRF (FRET) Assay Protocol
The ability of compounds to inhibit the kinase activity of recombinant FAK enzyme was determined by a HTRF (FRET) assay using Biotinylated PGT (B*PGT) as a peptide substrate. […] The reaction is stopped after 1 h and phosphotyrosine content of Biotin*PGT is measured using anti-phosphotyrosine specific Mab label with Eu3+-cryptate (Cisbio) and XL665 labeled streptavidin (Cisbio) by Homogeneous Time-Resolved Fluorescence (HTRF) method.
The Stock Reagents used are as follows:
Enzyme Buffer Reaction Buffer plus 0.03% BSA.
Development Buffer: 1 part 200 mM EDTA/50 mM Tris-HCl pH 7.4; 2 parts 1M KF; 0.07% BSA.
Assay Protocol: The compounds were serially diluted from 10 uM to […] (1:5 dil, 10 points) in kinase buffer (1×) containing 3% DMSO and added 5 uL to each well of a 384-well plate except negative and positive control wells. Only DMSO was added to positive and negative control wells. For negative control wells, no ATP was added but only 5 uL of B*PGT was added. B*PGT (final conc 7.5 ng/well) and ATP (final conc 100 uM) was added in 5 uL to all wells except negative control wells. Reaction was started by adding FAK enzyme (final conc 0.2 ng/well) in 5 ul of enzyme buffer per well and incubated at RT for 1 h. Phospho-tyrosine content of B*BGT was detected by adding PT66-Cryptate (1:100 dil) and XL665 conjugated streptavidin (1:100 dil) to each well in 7.5 uL development buffer and incubating for 1 h at RT. The plate was read on Victor machine

FAK [2] = biological target: T1, FAK; test: Cell-based capture ELISA for inhibition of FAK autophosphorylation [pY397] in MiaPaCa2 cells
Protocol: Cell-Based Assays for Inhibition of FAK Autophosphorylation: MiaPaCa2 and U87MG
ELISA kit from Invitrogen (KHO0441).
Reagents Provided in Biosource FAK [pY397]
The cells were then suspended in cell assay medium.

FAK [3] = biological target: T1, FAK; test: biochemical
FAK [4] = biological target: T1, FAK; test: Cell-based capture ELISA for inhibition of FAK autophosphorylation [pY397] in U87MG cells
[5] = MIA-PaCa2 cells on fibronectin, 2 h, no plasma, read-out: Mean FAK Cell Mechanistic IC50 MIA-PaCa2
[6] = MIA-PaCa2 cells, + 50% human plasma, read-out: Mean FAK Cell Mechanistic IC50 + 50% hP MIA-PaCa2
[7] = Mean FAK Cell Mechanistic IC50 + 50% mP U87MG, + 50% mouse plasma
[8] = MIA-PaCa2 cells, + 50% mouse plasma (Table 3), read-out: Mean FAK Cell Mechanistic IC50 + 50% mP MIA-PaCa2

T1 sequence (Q05397 whole entry): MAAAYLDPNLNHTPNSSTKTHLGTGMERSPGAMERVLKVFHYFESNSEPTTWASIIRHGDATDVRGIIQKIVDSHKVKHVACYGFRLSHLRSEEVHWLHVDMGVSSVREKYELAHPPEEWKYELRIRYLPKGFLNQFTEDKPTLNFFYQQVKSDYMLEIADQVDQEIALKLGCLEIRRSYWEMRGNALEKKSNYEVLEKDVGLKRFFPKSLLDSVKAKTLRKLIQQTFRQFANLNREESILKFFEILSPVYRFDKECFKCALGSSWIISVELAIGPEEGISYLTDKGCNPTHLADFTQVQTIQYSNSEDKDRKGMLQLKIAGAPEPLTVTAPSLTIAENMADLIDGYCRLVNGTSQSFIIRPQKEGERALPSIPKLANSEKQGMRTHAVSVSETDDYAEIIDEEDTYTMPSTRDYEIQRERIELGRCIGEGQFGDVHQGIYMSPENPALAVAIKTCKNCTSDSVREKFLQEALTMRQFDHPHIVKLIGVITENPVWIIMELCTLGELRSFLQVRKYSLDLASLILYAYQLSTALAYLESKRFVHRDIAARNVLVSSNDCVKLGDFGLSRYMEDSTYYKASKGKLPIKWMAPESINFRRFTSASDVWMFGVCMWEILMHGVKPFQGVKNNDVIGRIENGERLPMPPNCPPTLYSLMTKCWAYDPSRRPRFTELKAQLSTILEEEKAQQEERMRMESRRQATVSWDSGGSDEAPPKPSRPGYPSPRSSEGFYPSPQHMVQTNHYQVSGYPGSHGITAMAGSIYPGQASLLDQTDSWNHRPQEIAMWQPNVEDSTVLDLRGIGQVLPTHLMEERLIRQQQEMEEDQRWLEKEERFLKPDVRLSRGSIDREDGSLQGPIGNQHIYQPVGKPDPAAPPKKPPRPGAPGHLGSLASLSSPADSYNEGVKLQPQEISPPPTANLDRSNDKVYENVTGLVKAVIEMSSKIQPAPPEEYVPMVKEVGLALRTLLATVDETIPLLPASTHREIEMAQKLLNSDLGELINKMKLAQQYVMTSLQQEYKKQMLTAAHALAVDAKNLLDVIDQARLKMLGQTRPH

## CC(C)OP(=O)(Cc1ccc(Nc2ncc(C(F)(F)F)c(NCc3cccnc3N(C)S(C)(=O)=O)n2)cc1)OC(C)C [Example 27, dipropan-2-yl [4-({4-[({2-[methyl(methylsulfonyl)amino]pyridin-3-yl}methyl)amino]-5-(trifluoromethyl)pyrimidin-2-yl}amino)benzyl]phosphonate]
FAK [1]
  IC50: 1 to 10 µM
FAK [2]; [5]
  IC50: 1 to 10 µM
FAK [2]; [6]
  IC50: 1 to 10 µM
FAK [2]; MIA-PaCa2 cells, + 50% mouse plasma (Table 2), read-out: Mean FAK Cell Mechanistic IC50 + 50% mP MIA-PaCa2
  IC50: 1 to 10 µM

## CCOP(=O)(Cc1ccc(Nc2ncc(C(F)(F)F)c(Nc3ccc([C@H]4CC[C@H](O)CC4)cc3C(=O)NC)n2)c(OC)c1)OCC [Example 141, Diethyl (4-{[4-{[4-(trans-4-hydroxycyclohexyl)-2-(methylcarbamoyl)phenyl]amino}-5-(trifluoromethyl)pyrimidin-2-yl]amino}-3-methoxybenzyl)phosphonate]
FAK [3]
  IC50: < 1 µM
FAK [4]; [7]
  IC50: < 1 µM
FAK [2]; [8]
  IC50: < 1 µM

## CCOP(=O)(Cc1ccc(Nc2ncc(C(F)(F)F)c(Nc3cccc4[nH]cc(C)c(=O)c34)n2)c(OC)c1)OCC [Example 204, Diethyl [3-methoxy-4-({4-[(3-methyl-4-oxo-1,4-dihydroquinolin-5-yl)amino]-5-(trifluoromethyl)pyrimidin-2-yl}amino)benzyl]phosphonate]
FAK [3]
  IC50: < 1 µM
FAK [4]; [7]
  IC50: < 1 µM
FAK [2]; [8]
  IC50: < 1 µM

## CCOP(=O)(Cc1ccc(Nc2ncc(C(F)(F)F)c(Nc3ccc([C@H]4CC[C@H](O)CC4)c4c3C(=O)N(C)C4)n2)nc1)OCC [Example 309, Diethyl [(6-{[4-{[7-(trans-4-hydroxycyclohexyl)-2-methyl-3-oxo-2,3-dihydro-1H-isoindol-4-yl]amino}-5-(trifluoromethyl)pyrimidin-2-yl]amino}pyridin-3-yl)methyl]phosphonate]
FAK [3]
  IC50: < 1 µM
FAK [4]; [7]
  IC50: < 1 µM
FAK [2]; [8]
  IC50: < 1 µM

## CCOP(=O)(OCC)C(C)(C)c1ccc(Nc2ncc(C(F)(F)F)c(NCc3cccnc3N(C)S(C)(=O)=O)n2)cc1 [Example 7]
FAK [1]
  IC50: < 1 µM
FAK [2]; [5]
  IC50: < 1 µM
FAK [2]; [6]
  IC50: < 1 µM

## CCCP(=O)(CCC)c1cccc(Nc2ncc(C(F)(F)F)c(Nc3ccc([C@H]4CC[C@H](O)CC4)c4c3C(=O)N(C)C4)n2)c1 [Example 171, 7-{[2-{[3-(Dipropylphosphoryl)phenyl]amino}-5-(trifluoromethyl)pyrimidin-4-yl]amino}-4-(trans-4-hydroxycyclohexyl)-2-methyl-2,3-dihydro-1H-isoindol-1-one]
FAK [3]
  IC50: < 1 µM
FAK [4]; [7]
  IC50: < 1 µM
FAK [2]; [8]
  IC50: < 1 µM

## CCOP(=O)(Cc1ccc(Nc2ncc(C(F)(F)F)c(Nc3ccc(-c4cnn(CCCO)c4)c4c3C(=O)N(C)C4)n2)cc1)OCC [Example 156, Diethyl (4-{[4-({7-[1-(3-hydroxypropyl)-1H-pyrazol-4-yl]-2-methyl-3-oxo-2,3-dihydro-1H-isoindol-4-yl}amino)-5-(trifluoromethyl)pyrimidin-2-yl]amino}benzyl)phosphonate]
FAK [3]
  IC50: < 1 µM
FAK [4]; [7]
  IC50: < 1 µM
FAK [2]; [8]
  IC50: < 1 µM

## CCOP(=O)(OCC)c1ccc(Nc2ncc(C(F)(F)F)c(NCc3cccnc3N(C)S(C)(=O)=O)n2)cc1 [Example 2, Diethyl [4-({4-[({2-[methyl(methylsulfonyl)amino]pyridin-3-yl}methyl)amino]-5-(trifluoromethyl)pyrimidin-2-yl}amino)phenyl]phosphonate]
FAK [1]
  IC50: 1 to 10 µM

## CCOP(=O)(Cc1ccc(Nc2ncc(C(F)(F)F)c(Nc3ccc([C@H]4CC[C@H](O)CC4)cc3C(=O)NC)n2)cc1)OCC [Example 139, Diethyl (4-{[4-{[4-(trans-4-hydroxycyclohexyl)-2-(methylcarbamoyl)phenyl]amino}-5-(trifluoromethyl)pyrimidin-2-yl]amino}benzyl)phosphonate]
FAK [3]
  IC50: < 1 µM
FAK [4]; [7]
  IC50: 1 to 10 µM
FAK [2]; [8]
  IC50: < 1 µM

## CCOP(=O)(Cc1ccc(Nc2ncc(C(F)(F)F)c(Nc3ccc([C@H]4CC[C@H](O)CC4)c4c3C(=O)N(C)C4)n2)cn1)OCC [Example 260, Diethyl [(5-{[4-{[7-(trans-4-hydroxycyclohexyl)-2-methyl-3-oxo-2,3-dihydro-1H-isoindol-4-yl]amino}-5-(trifluoromethyl)pyrimidin-2-yl]amino}pyridin-2-yl)methyl]phosphonate]
FAK [3]
  IC50: < 1 µM
FAK [4]; [7]
  IC50: < 1 µM
FAK [2]; [8]
  IC50: < 1 µM

## CCOP(=O)(Cc1ccc(Nc2ncc(C(F)(F)F)c(Nc3ccccc3C(=O)NC)n2)c(OC)c1F)OCC [Example 147, Diethyl (2-fluoro-3-methoxy-4-{[4-{[2-(methylcarbamoyl)phenyl]amino}-5-(trifluoromethyl)pyrimidin-2-yl]amino}benzyl)phosphonate]
FAK [3]
  IC50: < 1 µM
FAK [4]; [7]
  IC50: < 1 µM
FAK [2]; [8]
  IC50: < 1 µM

## CCOP(=O)(Cc1ccc(Nc2ncc(C(F)(F)F)c(Nc3cccc4c3C(=O)N(C)C4C)n2)c(OC)c1)OCC (stereo not shown) [Example 158, Diethyl [4-({4-[(1,2-dimethyl-3-oxo-2,3-dihydro-1H-isoindol-4-yl)amino]-5-(trifluoromethyl)pyrimidin-2-yl}amino)-3-methoxybenzyl]phosphonate]
FAK [3]
  IC50: < 1 µM
FAK [4]; [7]
  IC50: < 1 µM
FAK [2]; [8]
  IC50: < 1 µM

## CCOP(=O)(Cc1ccc(Nc2ncc(C(F)(F)F)c(Nc3cccnc3C(=O)NC)n2)c(OC)c1)OCC [Example 231, Diethyl (3-methoxy-4-{[4-{[2-(methylcarbamoyl)pyridin-3-yl]amino}-5-(trifluoromethyl)pyrimidin-2-yl]amino}benzyl)phosphonate]
FAK [3]
  IC50: < 1 µM
FAK [4]; [7]
  IC50: < 1 µM
FAK [2]; [8]
  IC50: < 1 µM

## CNC(=O)c1ccccc1Nc1nc(Nc2ccc(CP(C)(=O)OCCOC)cc2OC)ncc1C(F)(F)F (stereo not shown) [Example 216, 2-Methoxyethyl (3-methoxy-4-{[4-{[2-(methylcarbamoyl)phenyl]amino}-5-(trifluoromethyl)pyrimidin-2-yl]amino}benzyl)methylphosphinate]
FAK [3]
  IC50: < 1 µM
FAK [4]; [7]
  IC50: < 1 µM
FAK [2]; [8]
  IC50: < 1 µM

## CCOP(=O)(Cc1ccc(Nc2ncc(C(F)(F)F)c(Nc3ccccc3C(=O)NC)n2)c(OC)c1)OCC [Ex. 53, diethyl (3-methoxy-4-{[4-{[2-(methylcarbamoyl)phenyl]amino}-5-(trifluoromethyl)pyrimidin-2-yl]amino}benzyl)phosphonate]
FAK [3]
  IC50: < 1 µM
FAK [4]; U87MG FAK Cell Mech IC50 +hP, + human plasma
  IC50: 0.16 µM
FAK [4]; U87MG FAK Cell Mech IC50 +mP, + mouse plasma
  IC50: 0.07 µM
FAK [2]; [5]
  IC50: < 1 µM
FAK [2]; [6]
  IC50: < 1 µM

## CCOP(=O)(Cc1ccc(Nc2ncc(C(F)(F)F)c(Nc3ccc(C4CCC(N(C)CC)CC4)c4c3C(=O)N(C)C4)n2)c(OC)c1)OCC (stereo not shown) [Example 236, Diethyl [4-({4-[(7-{4-[ethyl(methyl)amino]cyclohexyl}-2-methyl-3-oxo-2,3-dihydro-1H-isoindol-4-yl)amino]-5-(trifluoromethyl)pyrimidin-2-yl}amino)-3-methoxybenzyl]phosphonate]
FAK [3]
  IC50: < 1 µM
FAK [4]; [7]
  IC50: < 1 µM
FAK [2]; [8]
  IC50: < 1 µM

## CCOP(=O)(Cc1ccc(Nc2ncc(C(F)(F)F)c(Nc3ccc([C@H]4CC[C@H](OCOP(=O)(O)O)CC4)c4c3C(=O)N(C)C4)n2)c(OC)c1)OCC [Example 288, {[trans-4-(7-{[2-({4-[(diethoxyphosphoryl)methyl]-2-methoxyphenyl}amino)-5-(trifluoromethyl)pyrimidin-4-yl]amino}-2-methyl-1-oxo-2,3-dihydro-1H-isoindol-4-yl)cyclohexyl]oxy}methyl phosphate]
FAK [3]
  IC50: < 1 µM
FAK [4]; [7]
  IC50: < 1 µM

## CCOP(=O)(Cc1ccc(Nc2ncc(C(F)(F)F)c(Nc3ccc(C4=CCNCC4)c4c3C(=O)N(C)C4)n2)c(OC)c1)OCC [Example 262, Diethyl (3-methoxy-4-{[4-{[2-methyl-3-oxo-7-(1,2,3,6-tetrahydropyridin-4-yl)-2,3-dihydro-1H-isoindol-4-yl]amino}-5-(trifluoromethyl)pyrimidin-2-yl]amino}benzyl)phosphonate]
FAK [3]
  IC50: < 1 µM
FAK [4]; [7]
  IC50: < 1 µM

## CCOP(=O)(Cc1ccc(Nc2ncc(C(F)(F)F)c(Nc3ccc([C@H]4CC[C@@H](C(=O)NC)CC4)c4c3C(=O)N(C)C4)n2)c(OC)c1)OCC [Example 271, Diethyl (3-methoxy-4-{[4-({2-methyl-7-[cis-4-(methylcarbamoyl)cyclohexyl]-3-oxo-2,3-dihydro-1H-isoindol-4-yl}amino)-5-(trifluoromethyl)pyrimidin-2-yl]amino}benzyl) phosphonate]
FAK [3]
  IC50: < 1 µM
FAK [4]; [7]
  IC50: < 1 µM
